# Laboratory results taken from patent publication US5683725A, “Modulation of substance P by compounds containing calcium sulfate and methods relating thereto” (BioFrontiers, Inc., priority 1995, dated 1997).
# “And” between values parts separate entries of the source, which are not always exact repeats. Equal entries are not always repeated. No end group written: not given here.
# Legend:
# [1] = system: substance P-induced contractions of guinea pig ileum; assay: Antagonism of substance P: inhibition of substance P-induced contractions of isolated guinea pig ileum; conditions: for Antagonist Activity (% Inhibition): 100 μM, substance P-induced contractions of isolated guinea pig ileum, 37° C., with atropine, diphenhydramine, indomethacin; for Modulation of substance P (in words): conclusion from Table 1
# Source text: The ability of the calcium sulfate compounds of this invention to modulate substance P may be assayed by known techniques, such as those disclosed by Mizrahi et al. (Eur. J. Pharmacol. 91:139-140, 1983) and Holzer et al. (P. Eur. J. Pharmacol. 91:83-88, 1983). For example, PanLabs Test Numbers 3-0580 screen the ability of compounds to function as substance P antagonists by determining the ability of the compound to inhibit substance P-induced contractions of guinea pig ileum (see Example 6 herein below).
# This example illustrates the ability of representative calcium sulfate compounds of this invention to modulate substance P by functioning as substance P antagonists. Activity was measured by the procedures disclosed by Mizrahi et al. (Eur. J. Pharmacol. 91:139-140, 1983) and Holzer et al., (Eur. J. Pharmacol. 91:83-88, 1983). Specifically, isolated guinea pig ileum, bathed in physiological salt solution containing atropine (4.5 μM), diphenhydramaine (3.4 μM), and indomethacin (2.8 μM) at 37° C. was used. The ability of a test compounds to inhibit substance P-induced contractions of the illeum indicates antagonist activity.
# [2] = Single oral dose toxicity in Sprague Dawley rats, 14 day observation; type: in vivo, rat (Sprague Dawley); conditions: single oral dose 5 g/kg
# Protocol: This example illustrates the non-toxic nature of a representative calcium sulfate compound of this invention (i.e., syngenite).
# To determine the potential toxicity and/or toxic effects of syngenite when administered as a single oral dose in rats, 5 male and 5 female Sprague Dawley rats (200-300 grams) were administered syngenite at a dose level of 5 g/kg body weight by syringe and suitable intubation tubes.
# The body weight of each rat was recorded (in grams) just prior to administration of syngenite (Day 0), and weekly thereafter for two weeks (i.e., Day 7 and Day 14).
# neurogenic inflammation = conditions: pretreatment of the oral mucosa; cited from earlier work
# cluster headaches = conditions: intranasal, humans; cited from earlier work
# stomach injury = conditions: cited from earlier work
# febrile response = conditions: microinjected into the preoptic area of conscious guinea pigs; cited from earlier work
# nasal protein output = conditions: exogenously applied, allergic rhinitis patients; cited from earlier work
compound,measurement,setting,value
O.O=S(=O)([O-])[O-].O=S(=O)([O-])[O-].O=S(=O)([O-])[O-].O=S(=O)([O-])[O-].O=S(=O)([O-])[O-].O=S(=O)([O-])[O-].[Ca+2].[Ca+2].[Ca+2].[Ca+2].[Ca+2].[K+].[K+] [Gorgeyite],Antagonist Activity (% Inhibition),[1],16%
same,Modulation of substance P (in words),[1],effective modulating agents of substance P
"O.O.O=S(=O)([O-])[O-].[Ca+2] [Gypsum, calcium sulfate dihydrate]",Antagonist Activity (% Inhibition),[1],39%
same,Modulation of substance P (in words),[1],effective modulating agents of substance P
O.O=S(=O)(O)O.O=S(=O)(O)O.[Ca].[K].[K] [Syngenite],Antagonist Activity (% Inhibition),[1],40%
same,Modulation of substance P (in words),[1],effective modulating agents of substance P
same,"Body weight, Day 7",[2]; female rats,255 grams and 266 grams and 251 grams and 269 grams and 279 grams
same,"Body weight, Day 14",[2]; female rats,256 grams and 273 grams and 287 grams and 299 grams
same,"Body weight, Day 7",[2]; male rats,350 grams and 333 grams and 329 grams and 336 grams and 337 grams
same,"Body weight, Day 14",[2]; male rats,395 grams and 374 grams and 375 grams and 368 grams and 386 grams
same,Gross abnormalities at necropsy,[2],No gross abnormalities in any of the animals were observed
same,Survival / mortality,"[2]; 5 male and 5 female rats, 14 days",All ten test animals survived the 14 day observation period
same,Appearance of animals,[2]; 14 days,all animals appeared normal
same,Clinical observations,[2]; 14 days,No clinical observations were noted
same,Toxicity (overall),[2]; rats,non-toxic
COc1cc(CNC(=O)CCCC/C=C/C(C)C)ccc1O [capsaicin],Neurogenic inflammation upon local administration of substance P,neurogenic inflammation,prevents neurogenic inflammation
same,Severity of cluster headaches,cluster headaches,decrease the severity of cluster headaches
same,Area of stomach injury,"stomach injury; intragastric, prior to challenge with 30% ETOH",reduced the area of stomach injury
"substance P: undecapeptide, member of the tachykinin family of mammalian regulatory peptides (RPKPQQFFGLM; ends and bridges not checked; UniProt P20366 58-68, looked up)",Temperature,febrile response,caused an increase in temperature
same,Areas of injury (stomach),stomach injury; given IV,increased the areas of injury
same,Nasal protein output,nasal protein output,causes an increase in nasal protein output
